According to PMC6062912, “The Evolutionary Conserved γ-Core Motif Influences the Anti-Candida Activity of the Penicillium chrysogenum Antifungal Protein PAF” (Frontiers in Microbiology, 2018):
In brackets after ≈: the same amount, converted by molar mass. Residues, ends and D or L forms follow the SMILES beside them.

What was measured:
[1] = tested on: C. albicans; assay: ROS production, DCFH-DA fluorometric assay; type: cell-based, Candida albicans; conditions: for ROS signal higher compared to Pγ: 60 min
Experimental: For the detection of ROS generation in C. albicans a dichloro-dihydro-fluorescein diacetate (DCFH-DA, Sigma-Aldrich)-based fluorometric assay was applied, adapted from [Han et al. (2016)]. Cells from an overnight culture of C. albicans, grown on YPD agar, were suspended in 0.05× PDB (Sigma-Aldrich) and the cell number was adjusted to 10^7 cells mL^-1. DCFH-DA stock solution (100 mM in DMSO) was added to the cell suspension to give a final concentration of 100 μM. This cell suspension was pre-incubated for 30 min at 30°C protected from light. Serial dilutions of the test compounds were prepared in 0.05× PDB (Sigma-Aldrich) in 96-well microtiter plates (Nunclon Delta, Thermo Fisher Scientific) in a volume of 100 μL per well. H2O2 served as a positive control for ROS induction. After pre-incubation, the DCFH-DA loaded cells were added to the test compounds (100 μL per well) to give a final volume of 200 μL in each well and the 96-well plate was placed in a multi-mode microplate reader (FLUOstar Omega, BMG Labtech), set to 30°C incubation temperature. The fluorescence signal was recorded every 5 min over a time course of 4 h at excitation and emission wavelengths of 485 and 520 nm, respectively. Measurements were prepared in duplicates and assays were performed at least three times.
Since ROS production is an early marker for programmed cell death, we were also interested whether the investigated AMPs induce ROS in C. albicans. Therefore, C. albicans cells were loaded with DCFH-DA, which is converted intracellularly to the highly fluorescent DCF when oxidized in the presence of ROS ([Chen et al., 2010]). During exposure of the cells to 0–20 μM AMPs the DCF signal intensities were recorded in RFU every 5 min over a time-course of 4 h. The background RFU of 6,757 ± 117 was detected in C. albicans cells that were not exposed to AMPs, but loaded with DCFH-DA, diluted in 0.05× PDB (0.1% DMSO final concentration). The RFU value remained constant over the time of measurement. For all AMPs, we detected a time- and dose-dependent increase of ROS (Supplementary Figure S9) and ROS production was prevented by the addition of 1 mM of the antioxidant ascorbic acid to the highest concentration (20 μM) of each AMP (Supplementary Figure S10).

[2] = tested on: C. albicans; type: cell-based, Candida albicans; conditions: 24 h
Experimental: Fungal strains used in this study are listed in Supplementary Table S1 and composition of growth media is given in Supplementary Table S2. All P. chrysogenum shaking cultures were inoculated with 2 × 10^8 conidia, in 200 mL defined minimal medium (PcMM) for protein expression or complete medium (CM) before transformation, and grown at 25°C as described ([Sonderegger et al., 2016]). For conidial suspension generation from surface cultures, P. chrysogenum was grown on PcMM agar at 25°C. C. albicans was used as PAF-sensitive model organism and was cultivated on yeast extract peptone dextrose (YPD) agar at 37°C. For growth inhibition and susceptibility assays, C. albicans was grown in 20-fold diluted potato dextrose broth (PDB, Sigma-Aldrich) at 30°C, pH 5.5 ([Huber et al., 2018]).
The MIC of all protein and peptide variants was determined on C. albicans with broth microdilution assays in 96-well microtiter plates (Nunclon Delta, Thermo Fisher Scientific). From a fresh C. albicans overnight culture on YPD agar, cells were harvested with an inoculation loop and suspended in 0.05× PDB (Sigma-Aldrich) ([Arendrup et al., 2016]). The cell number was determined with a counting chamber (Bürker) and the cell number was adjusted to 10^4 mL^-1. In each well, 10^3 cells were incubated with increasing concentrations of antifungal proteins or peptides in a final volume of 200 μL 0.05× PDB. The plates were incubated for 24 h at 30°C before the growth was determined by measuring the optical density (OD620nm) with a multi-mode microplate reader (FLUOstar Omega, BMG Labtech). The MIC was defined as the protein concentration that inhibited growth by ≥90% compared to the untreated control, which was referred as 100% growth.

Compound | ROS signal above the background ([1]; 1.3 μM, 4 h) | fluorescence signal above the background (ROS) ([1]; 20 μM, 30 min) | ROS signal higher compared to Pγ ([1]; 20 μM) | ROS signal above the level induced by Pγ ([1]; 20 μM, 4 h) | MIC [2]
CC(=O)N[C@@H](CCCCN)C(=O)N[C@@H](Cc1ccc(O)cc1)C(=O)N[C@H](C(=O)NCC(=O)N[C@@H](CCCCN)C(=O)N[C@@H](CS)C(=O)N[C@@H](CCCCN)C(=O)N[C@H](C(=O)N[C@@H](CCCCN)C(=O)N[C@@H](CCCCN)C(=O)N[C@@H](CC(N)=O)C(=O)N[C@@H](CCCCN)C(=O)N[C@@H](CS)C(=O)N[C@@H](CCCCN)C(N)=O)[C@@H](C)O)[C@@H](C)O [Pγ^opt] (Ac-KYTGKCKTKKNKCK-NH2) | 36% | 31% | +85% | 446% | –
CC(=O)N[C@@H](CCCCN)C(=O)N[C@@H](Cc1ccc(O)cc1)C(=O)N[C@H](C(=O)NCC(=O)N[C@@H](CCCCN)C(=O)N[C@@H](CS)C(=O)N[C@@H](Cc1ccc(O)cc1)C(=O)N[C@@H](CCCCN)C(=O)N[C@@H](CCCCN)C(=O)N[C@@H](CCCCN)C(=O)N[C@@H](CC(N)=O)C(=O)N[C@@H](CCC(=O)O)C(=O)N[C@@H](CS)C(=O)N[C@@H](CCCCN)C(N)=O)[C@@H](C)O [Pγ^var] (Ac-KYTGKCYKKKNECK-NH2) | – | – | +50% | 146% | 2.5 µM (≈ 4.41 µg/mL)
